Our source for the IC50 values is BindingDB's records for patent US20240018151 (Tme Therapeutics, 2024).

Some results are limits rather than exact numbers.

The term IC50 denotes the concentration that gives 50% inhibition. The low end stands for inhibition by little substance, the high end for a need for much substance.

The target of this assay is 1-phosphatidylinositol 3-phosphate 5-kinase (Homo sapiens, UniProt Q9Y2I7). Briefly: ADP-GLO Kinase Assay. How it is done:
Briefly, 4 compound solution and 4 ATP solution are prepared with assay buffer (50 mM MOPS, 1 mM DTT, pH7.2). 4 Substrate solution and 4 kinase/Metal solution are prepared with MOPS based buffer containing individual kinase specific additives. Then, […], 5 μL of 4 Substrate solution, 5 μL of 4 ATP solution, and 5 μL of 4 kinase/Metal solution are mixed and incubated in a well of polystyrene 384 well black microplate for 1 hour at room temperature. Next, 20 μL of ADP-Glo Reagent (Promega) is added to the well,and incubated for over 40 minutes. 40 μL of Kinase Detection Reagent (Promega) is added to the well, and incubated for over 40 minutes. The kinase reaction is evaluated by the endpoint luminescence of the well. For measurement of PIKFYVE activity, the substrate is PI3P at 10,000 nM concentration, using AG-182 as a positive control. The metal used is magnesium at 5 mM concentration.
For orientation: ADP-Glo first removes unused ATP, then detects ADP through luciferase.

1-phosphatidylinositol 3-phosphate 5-kinase, sequence (Q9Y2I7 whole entry): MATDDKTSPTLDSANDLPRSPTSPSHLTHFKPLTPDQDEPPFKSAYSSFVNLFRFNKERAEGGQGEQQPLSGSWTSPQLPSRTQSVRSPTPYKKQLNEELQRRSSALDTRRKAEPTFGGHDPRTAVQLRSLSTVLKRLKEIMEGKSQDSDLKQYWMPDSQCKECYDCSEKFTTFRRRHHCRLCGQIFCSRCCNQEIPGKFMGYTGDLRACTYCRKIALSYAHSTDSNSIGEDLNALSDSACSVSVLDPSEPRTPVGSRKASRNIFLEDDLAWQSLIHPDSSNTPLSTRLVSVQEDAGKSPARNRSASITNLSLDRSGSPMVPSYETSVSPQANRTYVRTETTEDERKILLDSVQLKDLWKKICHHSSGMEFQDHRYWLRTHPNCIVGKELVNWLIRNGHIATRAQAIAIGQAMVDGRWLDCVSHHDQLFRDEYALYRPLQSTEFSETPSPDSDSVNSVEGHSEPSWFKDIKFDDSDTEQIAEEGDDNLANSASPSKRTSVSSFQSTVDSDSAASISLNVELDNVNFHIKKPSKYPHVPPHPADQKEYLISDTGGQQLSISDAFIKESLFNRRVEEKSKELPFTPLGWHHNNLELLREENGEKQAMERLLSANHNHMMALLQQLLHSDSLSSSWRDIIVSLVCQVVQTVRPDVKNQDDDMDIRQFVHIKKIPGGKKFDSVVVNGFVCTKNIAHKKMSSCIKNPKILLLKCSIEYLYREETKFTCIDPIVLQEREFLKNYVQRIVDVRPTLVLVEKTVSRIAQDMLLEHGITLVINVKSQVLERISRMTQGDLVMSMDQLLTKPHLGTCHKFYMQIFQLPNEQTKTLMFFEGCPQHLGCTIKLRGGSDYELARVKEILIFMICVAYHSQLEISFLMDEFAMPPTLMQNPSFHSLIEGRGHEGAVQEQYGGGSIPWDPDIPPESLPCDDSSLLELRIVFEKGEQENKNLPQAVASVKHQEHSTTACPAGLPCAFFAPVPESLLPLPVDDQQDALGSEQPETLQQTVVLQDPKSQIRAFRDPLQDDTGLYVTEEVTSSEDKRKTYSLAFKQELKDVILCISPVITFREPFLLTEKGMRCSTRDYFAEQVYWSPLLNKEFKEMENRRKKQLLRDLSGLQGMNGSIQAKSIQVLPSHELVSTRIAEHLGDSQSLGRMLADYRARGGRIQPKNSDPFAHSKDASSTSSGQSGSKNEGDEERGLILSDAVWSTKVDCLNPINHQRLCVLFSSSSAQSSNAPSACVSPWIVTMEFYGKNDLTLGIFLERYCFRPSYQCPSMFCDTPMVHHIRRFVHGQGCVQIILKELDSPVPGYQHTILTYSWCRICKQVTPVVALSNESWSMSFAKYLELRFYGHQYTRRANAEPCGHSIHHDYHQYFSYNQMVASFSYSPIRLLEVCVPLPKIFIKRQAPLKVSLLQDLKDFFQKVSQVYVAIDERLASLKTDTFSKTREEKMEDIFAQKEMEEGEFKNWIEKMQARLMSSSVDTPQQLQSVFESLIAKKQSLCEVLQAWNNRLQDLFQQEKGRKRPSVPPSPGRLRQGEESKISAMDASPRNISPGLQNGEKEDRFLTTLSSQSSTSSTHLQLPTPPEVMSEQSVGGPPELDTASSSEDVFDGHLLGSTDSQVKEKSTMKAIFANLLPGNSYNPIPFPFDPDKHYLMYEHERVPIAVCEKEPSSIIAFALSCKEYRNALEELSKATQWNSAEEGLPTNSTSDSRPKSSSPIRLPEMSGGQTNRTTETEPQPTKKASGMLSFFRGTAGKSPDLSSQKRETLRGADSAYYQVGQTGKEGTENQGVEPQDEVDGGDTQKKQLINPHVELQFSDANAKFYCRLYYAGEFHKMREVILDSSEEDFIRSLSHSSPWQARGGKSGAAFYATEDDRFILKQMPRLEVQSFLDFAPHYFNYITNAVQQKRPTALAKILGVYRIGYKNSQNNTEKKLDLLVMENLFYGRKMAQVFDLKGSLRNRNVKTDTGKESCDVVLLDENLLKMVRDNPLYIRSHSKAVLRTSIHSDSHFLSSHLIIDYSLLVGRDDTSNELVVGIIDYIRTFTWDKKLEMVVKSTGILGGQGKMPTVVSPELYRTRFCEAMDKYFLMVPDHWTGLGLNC

In turn, `Brc1cccc(-c2ccn(-c3cc(N4CCOCC4)n4nc(-c5ccncc5)cc4n3)n2)c1` [US20240018151, Example 3] had an IC50 of under 50 nM.
